Experimental data published in patent US8088801B2, “Aryloazol-2-yl cyanoethylamino compounds, method of making and method of using thereof” (Merial Limited, priority 2007, dated 2012).

Experiments:
[1] = system: Trichostrongylus colubriformis; experiment: Method D: screening against Trichostrongylus colubriformis, L1 larvae in microtitre plate; conditions: 96 h, 4 days assessment, read-out: motility inhibition; for inhibition at 0.04 ppm: test concentration 0.04 ppm; for inhibition at 0.15 ppm: test concentration 0.15 ppm; for inhibition at 0.01 ppm: test concentration 0.01 ppm
Experimental: Method D: Screening Method to Test Activity of Compounds Against Trichostrongylus colubriformis.
Twenty L1 Trichostrongylus colubriformis larvae were added to wells of a microtitre plate containing a nutrient medium and the test compound in DMSO. The microtitre plate was then held at 27° C. where the L1 larvae were allowed to develop. An analysis was conducted at 4 days to determine successful development to the L3 stage. Larvae exposed to DMSO and no test compound served as controls. Compounds numbers 1.008, 1.014, 1.042, 1.047, 1.048, 1.073, 2.001, 2.003 and 2.020, gave at least 90% motility inhibition at a test concentration of 0.15 ppm at the 4 days assessment. Compounds numbers 1.001, 1.003, 1.007, 1.011, 1.037, 1.038, 1.043, 1.056, 1.066, 1.070, 1.071, 2.012 and 2.016, gave at least 90% motility inhibition at a test concentration of 0.04 ppm at the 4 days assessment. Compounds numbers 1.012, 1.020, 1.021, 1.033, 1.034, 1.039, 1.064, 1.065, 2.008, 2.009 and 3.005 gave at least 90% motility inhibition at a test concentration of 0.01 ppm at the 4 days assessment. Compounds numbers 1.094, 2.040, 2.048, 2.049, 3.006, 3.009, 3.011 and 3.012 gave at least 90% motility inhibition at a test concentration of 0.0025 ppm at the 4 days assessment.

Haemonchus contortus [2] = experiment: Method A: screening against Haemonchus contortus, L1 larvae in microtitre plate; conditions: 96 h, 4 days assessment, read-out: motility inhibition; for inhibition at 0.01 ppm: test concentration 0.01 ppm; for inhibition at 0.15 ppm: test concentration 0.15 ppm; for inhibition at 0.04 ppm: test concentration 0.04 ppm; for inhibition at 0.0025 ppm: test concentration 0.0025 ppm
From the text: Method A: Screening Method to Test Activity of Compounds Against Haemonchus contortus.

Haemonchus contortus [3] = experiment: Method B: Haemonchus contortus in vivo in Mongolian gerbil, oral gavage; design: species or system Mongolian gerbil (Meriones unguiculatus); conditions: 72 h, Mongolian gerbils, read-out: reduction in nematode infestation; for inhibition in vivo at 100 mg/kg: necropsy 3 days after treatment
Experimental: Method B: Screening Method to Test Activity of Compounds Against Haemonchus contortus In Vivo in Mongolian Gerbil (Meriones unguiculatus).
Mongolian gerbils, at least five weeks old, were immunosuppressed and artificially infected with ca. 1000 ensheathed Haemonchus contortus third instar larvae. Six days after infection, the Mongolian gerbils were treated by oral gavage with the test compounds, dissolved in a mixture of 2 parts DMSO and 1 part polyethylene glycol (PEG400), at doses of 100 mg/kg and dissolved in pure polyethylene glycol (PEG400) at doses of 10 and 1 mg/kg. Jirds treated only with the placebo (2 parts DMSO and 1 part PEG400 or pure PEG400) served as controls. On day 9 (3 days after treatment) the jirds were euthanized and necropsied for recovery of parasites from the stomach. Efficacy was calculated as the average % reduction in the number of worms in each test group compared with the average number of worms from the control group. […] Compound numbers 1.001, 1.008, 1.012, 1.013 and 1.014 provided at least 95% reduction in nematode infestation in Mongolian gerbils treated by oral gavage with test article at a dose of 100 mg/kg. Compound numbers 1.012, 1.033, 1.064, 2.008, 2.037, 2.038, 2.040, 2.041, 3.001 provided at least 95% reduction in nematode infestation at a dose of 10 mg/kg. Compound numbers 1.094, 2.048, 3.001, 3.007 and 3.009, provided at least 95% reduction in nematode infestation at a dose of 1 mg/kg. Compound numbers 3.005, 3.006, 3.011, 3.012, 3.017 and 3.019, provided at least 95% reduction in nematode infestation at a dose of 0.5 mg/kg.

SMILES	inhibition at 0.04 ppm [1] [%]	inhibition at 0.01 ppm (Haemonchus contortus [2]) [%]	inhibition at 0.15 ppm [1] [%]	inhibition at 0.04 ppm (Haemonchus contortus [2]) [%]	other results
CC(C#N)(Cn1nc2ccc(Cl)cc2n1)NC(=O)c1ccc(OC(F)(F)F)cc1 (stereo not drawn) [Compound 1.001, N-[2-(5-Chloro-2H-benzotriazol-2-yl)-1-cyano-1-methylethyl]-4-trifluoromethoxybenzamide]	≥ 90	≥ 90	–	–	inhibition in vivo at 100 mg/kg (Haemonchus contortus [3]): ≥ 95%
CC(C#N)(Cn1nc2ccc(C(F)(F)F)cc2n1)NC(=O)c1ccc(OC(F)(F)F)cc1 (stereo not drawn) [Compound 1.008, N-[1-Cyano-1-methyl-2-(5-trifluoromethyl-2H-benzotriazol-2-yl)ethyl]-4-trifluoromethoxybenzamide]	–	–	≥ 90	–	inhibition at 0.15 ppm (Haemonchus contortus [2]): ≥ 90%; inhibition in vivo at 100 mg/kg (Haemonchus contortus [3]): ≥ 95%
CC(C#N)(Cn1nc2cc(C(F)(F)F)cc(Cl)c2n1)NC(=O)c1ccc(OC(F)(F)F)cc1 (stereo not drawn) [Compound 1.014, N-[2-(4-Chloro-6-trifluoromethyl-2H-benzotriazol-2-yl)-1-cyano-1-methylethyl]-4-trifluoromethoxybenzamide]	–	–	≥ 90	–	inhibition at 0.15 ppm (Haemonchus contortus [2]): ≥ 90%; inhibition in vivo at 100 mg/kg (Haemonchus contortus [3]): ≥ 95%
CC(C#N)(Cn1nc2ccc(Br)cc2n1)NC(=O)c1ccc(OC(F)(F)F)cc1 (stereo not drawn) [Compound 1.020, N-[2-(5-Bromo-2H-benzotriazol-2-yl)-1-cyano-1-methylethyl]-4-trifluoromethoxybenzamide]	–	≥ 90	–	–	inhibition at 0.01 ppm [1]: ≥ 90%
CC(C#N)(Cn1nc2cc(Cl)cc(C(F)(F)F)c2n1)NC(=O)c1ccc(OC(F)(F)F)cc1 (stereo not drawn) [Compound 1.037, N-[2-(6-Chloro-4-trifluoromethyl-2H-benzotriazol-2-yl)-1-cyano-1-methylethyl]-4-trifluoromethoxybenzamide]	≥ 90	≥ 90	–	–	–
Cc1cc(Cl)cc2nn(CC(C)(C#N)NC(=O)c3ccc(Oc4ccccc4)cc3)nc12 (stereo not drawn) [Compound 1.039, N-[2-(6-Chloro-4-methyl-2H-benzotriazol-2-yl)-1-cyano-1-methylethyl]-4-phenoxybenzamide]	–	≥ 90	–	–	inhibition at 0.01 ppm [1]: ≥ 90%
CC(C#N)(Cn1nc2cc(Cl)cc(C(F)(F)F)c2n1)NC(=O)c1ccc(Oc2ccccc2)cc1 (stereo not drawn) [Compound 1.042, N-[2-(6-Chloro-4-trifluoromethyl-2H-benzotriazol-2-yl)-1-cyano-1-methylethyl]-4-phenoxybenzamide]	–	–	≥ 90	≥ 90	–
CC(C#N)(Cn1nc2cccc(Cl)c2n1)NC(=O)c1ccc(OC(F)(F)F)cc1 (stereo not drawn) [Compound 1.043, N-[2-(4-Chloro-2H-benzotriazol-2-yl)-1-cyano-1-methylethyl]-4-trifluoromethoxybenzamide]	≥ 90	–	–	≥ 90	–
CCC(C#N)(Cn1nc2ccc(Cl)cc2n1)NC(=O)c1ccc(OC(F)(F)F)cc1 (stereo not drawn) [Compound 1.047, N-{1-[(5-Chloro-2H-benzotriazol-2-yl)methyl]-1-cyanopropyl}-4-trifluoromethoxybenzamide]	–	–	≥ 90	≥ 90	–
CC(C#N)(Cn1nc2cc(C#N)cc(C(F)(F)F)c2n1)NC(=O)c1ccc(OC(F)(F)F)cc1 (stereo not drawn) [Compound 1.056, N-[1-Cyano-2-(6-cyano-4-trifluoromethyl-2H-benzotriazol-2-yl)-1-methylethyl]-4-trifluoromethoxybenzamide]	≥ 90	–	–	≥ 90	–
COc1cc(Cl)c2nn(CC(C)(C#N)NC(=O)c3ccc(OC(F)(F)F)cc3)nc2c1 (stereo not drawn) [Compound 1.070, N-[2-(4-Chloro-6-methoxy-2H-benzotriazol-2-yl)-1-cyano-1-methylethyl]-4-trifluoromethoxybenzamide]	≥ 90	–	–	≥ 90	–
CC(C#N)(Cn1cc2cc([N+](=O)[O-])ccc2n1)NC(=O)c1ccc(OC(F)(F)F)cc1 (stereo not drawn) [Compound 2.001, N-[1-Cyano-1-methyl-2-(5-nitro-2H-indazol-2-yl)ethyl]-4-trifluoromethoxybenzamide]	–	–	≥ 90	≥ 90	–
CC(C#N)(Cn1cc2cc(Cl)cc(Cl)c2n1)NC(=O)c1ccc(OC(F)(F)F)cc1 (stereo not drawn) [Compound 2.003, N-[1-Cyano-2-(5,7-dichloro-2H-indazol-2-yl)-1-methylethyl]-4-trifluoromethoxybenzamide]	–	–	≥ 90	≥ 90	–
COc1c2cc(Cl)ccc2nn1CC(C)(C#N)NC(=O)c1ccc(OC(F)(F)F)cc1 (stereo not drawn) [Compound 2.012, N-[2-(5-Chloro-3-methoxy-2H-indazol-2-yl)-1-cyano-1-methylethyl]-4-trifluoromethoxybenzamide]	≥ 90	≥ 90	–	–	–
COc1c2ccccc2nn1CC(C)(C#N)NC(=O)c1ccc(OC(F)(F)F)cc1 (stereo not drawn) [Compound 2.016, N-[1-Cyano-2-(3-methoxy-2H-indazol-2-yl)-1-methylethyl]-4-trifluoromethoxybenzamide]	≥ 90	–	–	≥ 90	–
COc1c2cc(Cl)cc(Cl)c2nn1CC(C)(C#N)NC(=O)c1ccc(OC(F)(F)F)cc1 (stereo not drawn) [Compound 2.020, N-[1-Cyano-2-(5,7-dichloro-3-methoxy-2H-indazol-2-yl)-1-methylethyl]-4-trifluoromethoxybenzamide]	–	–	≥ 90	–	inhibition at 0.15 ppm (Haemonchus contortus [2]): ≥ 90%
CC(C#N)(Cn1cc2ccc(Cl)cc2n1)NC(=O)c1ccc(OC(F)(F)F)cc1 (stereo not drawn) [Compound 2.037, N-[2-(6-Chloro-2H-indazol-2-yl)-1-cyano-1-methylethyl]-4-trifluoromethoxybenzamide]	–	–	–	–	inhibition at 0.0025 ppm (Haemonchus contortus [2]): ≥ 90%; inhibition in vivo at 10 mg/kg (Haemonchus contortus [3]): ≥ 95%
COc1c2ncc(Cl)cc2nn1CC(C)(C#N)NC(=O)c1ccc(OC(F)(F)F)cc1 (stereo not drawn) [Compound 3.001, N-[2-(6-Chloro-3-methoxy-2H-pyrazolo[4,3-b]pyridin-2-yl)-1-cyano-1-methylethyl]-4-trifluoromethoxybenzamide]	–	–	–	–	inhibition at 0.0025 ppm (Haemonchus contortus [2]): ≥ 90%; inhibition in vivo at 1 mg/kg (Haemonchus contortus [3]): ≥ 95%; inhibition in vivo at 10 mg/kg (Haemonchus contortus [3]): ≥ 95%
Cc1c(Br)cnc2nn(CC(C)(C#N)NC(=O)c3ccc(OC(F)(F)F)cc3)nc12 (stereo not drawn) [Compound 3.003, N-[2-(6-Bromo-7-methyl-2H-[1,2,3]triazolo[4,5-b]pyridin-2-yl)-1-cyano-1-methylethyl]-4-trifluoromethoxybenzamide]	–	–	–	–	inhibition at 0.15 ppm (Haemonchus contortus [2]): ≥ 90%
COc1c2ncc(Br)c(C)c2nn1CC(C)(C#N)NC(=O)c1ccc(OC(F)(F)F)cc1 (stereo not drawn) [Compound 3.007, N-[2-(6-Bromo-3-methoxy-7-methyl-2H-pyrazolo[4,3-b]pyridin-2-yl)-1-cyano-1-methylethyl]-4-trifluoromethoxybenzamide]	–	≥ 90	–	–	inhibition in vivo at 1 mg/kg (Haemonchus contortus [3]): ≥ 95%
COc1c2ncc(Cl)c(C)c2nn1CC(C)(C#N)NC(=O)c1ccc(OC(F)(F)F)cc1 (stereo not drawn) [Compound 3.008, N-[2-(6-Chloro-3-methoxy-7-methyl-2H-pyrazolo[4,3-b]pyridin-2-yl)-1-cyano-1-methylethyl]-4-trifluoromethoxybenzamide]	–	≥ 90	–	–	–
Cc1c(Cl)cnc2cn(CC(C)(C#N)NC(=O)c3ccc(OC(F)(F)F)cc3)nc12 (stereo not drawn) [Compound 3.010, N-[2-(6-Chloro-7-methyl-2H-pyrazolo[4,3-b]pyridin-2-yl)-1-cyano-1-methylethyl]-4-trifluoromethoxybenzamide]	–	–	–	≥ 90	–
